ChEMBL document CHEMBL3407355, “Understanding the importance of glycosylated threonine and stereospecific action of Drosocin, a Proline rich antimicrobial peptide” (Eur J Med Chem, 2015)
Values after ≈ are worked out from the molar mass of the structure shown. Active and inactive are the calls of the source. No cut-off for these calls is given here. Where a SMILES comes first, the peptide text is derived from it. The star is where a group is joined. αGalNAc = CC(=O)N[C@@H]1[C@@H](O)[C@@H](O)[C@@H](CO)O[C@@H]1*; X1 = CC(=O)N[C@H]1[C@H](O)[C@H](O)[C@H](CO)O[C@H]1*

What was measured:
[1] = system: Escherichia coli; assay: Antimicrobial activity against Escherichia coli ATCC 35218 by broth microdilution assay; format: functional
[2] = system: Salmonella typhi; assay: Antimicrobial activity against Salmonella typhi Vi+ by broth microdilution assay; format: functional, Salmonella enterica subsp. enterica serovar Typhi; conditions: Salmonella enterica
[3] = system: Escherichia coli; assay: Binding affinity to Escherichia coli His-tagged recombinant […] binding domain of DnaK assessed as rate constant by […] Plasmon resonance assay
[4] = system: Escherichia coli; assay: Drug uptake in Escherichia coli ATCC 25922 assessed as cellular internalization after 30 mins by FACS analysis; format: ADME, organism-based; conditions: in vivo, 0.5 h
[5] = Binding affinity to Escherichia coli His-tagged recombinant […] binding domain of DnaK by […] Plasmon resonance assay
[6] = system: Escherichia coli; assay: Antimicrobial activity against Escherichia coli ATCC 25922 by broth microdilution assay; format: functional
[7] = system: Escherichia coli; assay: Antimicrobial activity against Escherichia coli ATCC 11775 by broth microdilution assay; format: functional
[8] = system: Salmonella typhimurium; assay: Antimicrobial activity against Salmonella typhimurium ATCC 14028 by broth microdilution assay; format: functional, Salmonella enterica subsp. enterica serovar Typhimurium; conditions: Salmonella enterica
[9] = system: Escherichia coli; assay: Inhibition of protein biosynthesis in Escherichia coli ATCC 25922 assessed as incorporation of [35S]methionine into protein at 10 times of MIC concentration by in-vivo translation assay; format: functional, organism-based
[10] = system: Escherichia coli; assay: In-vitro inhibition of luciferase reporter gene translation in Escherichia coli S30 extract at 200 ng by transcription/translation assay; format: functional
[11] = system: Escherichia coli; assay: Inhibition of RNA biosynthesis in Escherichia coli ATCC 25922 assessed as incorporation of [3H]uridine into RNA at 10 times of MIC concentration by in-vivo transcription assay; format: functional, organism-based
[12] = system: Escherichia coli; assay: Inhibition of protein biosynthesis in Escherichia coli ATCC 25922 assessed as incorporation of [35S]methionine into protein at 2.5 ug/300 ul by in-vivo translation assay; format: functional, organism-based

Compound | MIC [1] [µM] | MIC [2] [µM] | Ka [3] [×10⁴ /M/s] | Kdiss [3] [s⁻¹] | Drug uptake [4] [%] | Kd [5] [nM] | MIC [6] [µM] | MIC [7] [µM] | MIC [8] [µM] | inhibition [9] | inhibition [10] | inhibition [11] | inhibition [12]
CC[C@H](C)[C@H](NC(=O)[C@@H]1CCCN1C(=O)[C@H](CCCNC(=N)N)NC(=O)[C@@H]1CCCN1C(=O)[C@H](Cc1cnc[nH]1)NC(=O)[C@H](CO)NC(=O)[C@@H](NC(=O)[C@@H]1CCCN1C(=O)[C@H](CCCNC(=N)N)NC(=O)[C@@H]1CCCN1C(=O)[C@H](CO)NC(=O)[C@H](Cc1ccc(O)cc1)NC(=O)[C@@H]1CCCN1C(=O)[C@H](CCCNC(=N)N)NC(=O)[C@@H]1CCCN1C(=O)[C@H](CCCCN)NC(=O)CN)[C@@H](C)O[C@H]1O[C@H](CO)[C@H](O)[C@H](O)[C@H]1NC(C)=O)C(=O)N[C@@H](CCCNC(=N)N)C(=O)N[C@H](C(=O)O)C(C)C (H-GKPRPYSPRPT(αGalNAc)SHPRPIRV-OH) | 0.2 (≈ 0.48 µg/mL) | 0.3 (≈ 0.721 µg/mL) | 2.04 | 0.0366 | 16 | 1790 | 0.2 (≈ 0.48 µg/mL) | 0.3 (≈ 0.721 µg/mL) | 0.3 (≈ 0.721 µg/mL) | – | – | – | –
CC[C@H](C)[C@H](NC(=O)[C@@H]1CCCN1C(=O)[C@H](CCCNC(=N)N)NC(=O)[C@@H]1CCCN1C(=O)[C@H](Cc1cnc[nH]1)NC(=O)[C@H](CO)NC(=O)[C@@H](NC(=O)[C@@H]1CCCN1C(=O)[C@H](CCCNC(=N)N)NC(=O)[C@@H]1CCCN1C(=O)[C@H](CO)NC(=O)[C@H](Cc1ccc(O)cc1)NC(=O)[C@@H]1CCCN1C(=O)[C@H](CCCNC(=N)N)NC(=O)[C@@H]1CCCN1C(=O)[C@H](CCCCN)NC(=O)CN)[C@@H](C)O[C@@H]1O[C@@H](CO)[C@@H](O)[C@@H](O)[C@@H]1NC(C)=O)C(=O)N[C@@H](CCCNC(=N)N)C(=O)N[C@H](C(=O)O)C(C)C (H-GKPRPYSPRPT(X1)SHPRPIRV-OH) | 0.2 (≈ 0.48 µg/mL) | 1.3 (≈ 3.12 µg/mL) | 1.94 | 0.0297 | 20 | 1530 | 0.3 (≈ 0.721 µg/mL) | 0.5 (≈ 1.2 µg/mL) | 1.8 (≈ 4.32 µg/mL) | – | – | – | –
H-GKPRPYSPRPSSHPRPIRV-OH | 0.2 | 3 | – | – | – | – | 0.4 | 0.6 | 2 | – | – | – | –
CC[C@H](C)[C@H](NC(=O)[C@@H]1CCCN1C(=O)[C@H](CCCNC(=N)N)NC(=O)[C@@H]1CCCN1C(=O)[C@H](Cc1cnc[nH]1)NC(=O)[C@H](CO)NC(=O)[C@H](CO[C@H]1O[C@H](CO)[C@H](O)[C@H](O)[C@H]1NC(C)=O)NC(=O)[C@@H]1CCCN1C(=O)[C@H](CCCNC(=N)N)NC(=O)[C@@H]1CCCN1C(=O)[C@H](CO)NC(=O)[C@H](Cc1ccc(O)cc1)NC(=O)[C@@H]1CCCN1C(=O)[C@H](CCCNC(=N)N)NC(=O)[C@@H]1CCCN1C(=O)[C@H](CCCCN)NC(=O)CN)C(=O)N[C@@H](CCCNC(=N)N)C(=O)N[C@H](C(=O)O)C(C)C (H-GKPRPYSPRPS(αGalNAc)SHPRPIRV-OH) | 0.5 (≈ 1.19 µg/mL) | 5 (≈ 11.9 µg/mL) | – | – | – | – | 1.1 (≈ 2.63 µg/mL) | 1.6 (≈ 3.82 µg/mL) | 6 (≈ 14.3 µg/mL) | – | – | – | –
CC[C@H](C)[C@H](NC(=O)[C@@H]1CCCN1C(=O)[C@H](CCCNC(=N)N)NC(=O)[C@@H]1CCCN1C(=O)[C@H](Cc1cnc[nH]1)NC(=O)[C@@H]1CCCN1C(=O)[C@@H]1CCCN1C(=O)[C@@H]1CCCN1C(=O)[C@H](CCCNC(=N)N)NC(=O)[C@@H]1CCCN1C(=O)[C@@H]1CCCN1C(=O)[C@H](Cc1ccc(O)cc1)NC(=O)[C@@H]1CCCN1C(=O)[C@H](CCCNC(=N)N)NC(=O)[C@@H]1CCCN1C(=O)[C@H](CCCCN)NC(=O)CN)C(=O)N[C@@H](CCCNC(=N)N)C(=O)N[C@H](C(=O)O)C(C)C | 0.2 (≈ 0.443 µg/mL) | 0.6 (≈ 1.33 µg/mL) | 2.45 | 0.0366 | – | 1490 | 0.3 (≈ 0.664 µg/mL) | 0.3 (≈ 0.664 µg/mL) | 0.6 (≈ 1.33 µg/mL) | Active | Active | – | –
CC[C@@H](C)[C@@H](NC(=O)[C@H]1CCCN1C(=O)[C@@H](CCCNC(=N)N)NC(=O)[C@H]1CCCN1C(=O)[C@@H](Cc1cnc[nH]1)NC(=O)[C@H]1CCCN1C(=O)[C@H]1CCCN1C(=O)[C@H]1CCCN1C(=O)[C@@H](CCCNC(=N)N)NC(=O)[C@H]1CCCN1C(=O)[C@H]1CCCN1C(=O)[C@@H](Cc1ccc(O)cc1)NC(=O)[C@H]1CCCN1C(=O)[C@@H](CCCNC(=N)N)NC(=O)[C@H]1CCCN1C(=O)[C@@H](CCCCN)NC(=O)CN)C(=O)N[C@H](CCCNC(=N)N)C(=O)N[C@@H](C(=O)O)C(C)C | > 200 | > 200 | 9.34 | 0.0137 | 2 | 1470 | > 200 | > 200 | > 200 | inactive | Active | inactive | –
CN(C)[C@@H]1C(O)=C(C(N)=O)C(=O)[C@@]2(O)C(O)=C3C(=O)c4c(O)cccc4[C@@](C)(O)[C@H]3C[C@@H]12 | – | – | – | – | – | – | – | – | – | – | – | – | Active
H-GKPRPYSPRPTSHPRPIRV-OH [DROSOCIN] | 0.4 | 3 | – | – | – | – | 0.5 | 0.7 | 2 | – | – | – | –
